pIC50: −log10 of the molar value. Like-named read-outs stand apart in the source and are kept apart here.
What was measured:
[1] = tested on: P388 lymphotic leukemia; test: In vivo antileukemic evaluation, P388 leukemia in BDF1 mice
Method: BDF1 mice are injected ip with 10^6 P388 lymphotic leukemia cells on day O and treated ip on days 1-5 in accordance with the protocols described by the National Cancer Institute: Geran, R. I.; Greenberg, R. H.; MacDonald, M. M.; Schumacher, A. M.; Abbot, B. J. Cancer Chemother, Re., Part 3, 1972,3,1. The mean survival time (MST) for each treatment group (eight mice) is calculated and the percent of T/C was determined by using the following formula: % T/C=(MST treated)/(MST control) 100.

[2] = tested on: mouse L1210 leukemia cells; test: In vitro cytotoxicity, 48 h growth inhibition (cell protein content); format: cell-based; conditions: for pIC50: read-out: in vitro IC50
Method: The mouse L1210 leukemia cells (RPM1, USA) are grown in RPM1 1640 medium supplemented with 5% fetal calf serum and penicillin (1,000,000 units litre) plus streptomycin (100 mg/litre) in controlled air-5% CO2 humidified atmosphere at 37° C. L1210 mouse leukemia cells are seeded at a density of 5.10^4 cells/ml. The tested compounds after being dissolved in 50% ethanol are added, at four different concentrations, to the cell suspensions. […] 1974, 24, 1971.

[3] = P388 ip, treated ip days 1-5, at opt dose, first or only value
[4] = P388 ip, treated ip days 1-5, at opt dose, repeated independent multidose assay (footnote c)
[5] = L1210 cells, 48 h, 50% growth inhibition
[6] = L1210 cells, 48 h, 50% growth inhibition, read-out: in vitro IC50 (μg/ml)

SMILES	% T/C (mean survival time treated/control) [1, 3]	% T/C (mean survival time treated/control), second value [1, 4]	pIC50 [2, 5]	IC50 [2, 6]	IC50 ([2]; L1210, 48 h, read-out: in vitro IC50 (μM))	IC50 ([2]; L1210, 48 h, read-out: in vitro IC50 (μg/ml))	% T/C (mean survival time treated/control) ([1]; ip)	% T/C (mean survival time treated/control), second value ([1]; ip)
CCN(CC)CCNc1ccc2ncn3c4ccc(OC)cc4c(=O)c1c23.Cl.Cl [Example 1, 5-[[2-(Diethylamino)ethyl]amino]-8-methoxyimidazo[4,5,1-de] acridin-6-one Dihydrochloride]	183%	209%	5.74	0.78 µg/mL	–	–	–	–
COc1ccc2c(c1)c(=O)c1c(NCCN(C)C)ccc3ncn2c31 [Example 2]	177%	136%	–	–	1.6 µM	0.65 µg/mL	–	–
COc1ccc2c(c1)c(=O)c1c(NCCN(C)C)ccc3nc(C)n2c31 [Example 3]	127%	–	6.11	0.34 µg/mL	–	–	–	–
CCN(CC)CCNc1ccc2nc(C)n3c4ccc(OC)cc4c(=O)c1c23 [Example 4]	136%	120%	5.81	0.7 µg/mL	–	–	–	–
COc1ccc2c(c1)c(=O)c1c(NCCCN(C)C)ccc3ncn2c31 [Example 5]	164%	–	5.08	3.5 µg/mL	–	–	–	–
COc1ccc2c(c1)c(=O)c1c(NCCCN(C)C)ccc3nc(C)n2c31 [Example 6]	136%	–	5.49	1.4 µg/mL	–	–	–	–
CCN(CC)CCCNc1ccc2ncn3c4ccc(OC)cc4c(=O)c1c23 [Example 7]	142%	–	5.60	1.1 µg/mL	–	–	–	–
CCN(CC)CCCNc1ccc2nc(C)n3c4ccc(OC)cc4c(=O)c1c23 [Example 8]	108%	–	5.85	0.7 µg/mL	–	–	–	–
CN(C)CCNc1ccc2ncn3c4ccc(O)cc4c(=O)c1c23 [Example 9]	210%	210%	7.32	0.02 µg/mL	–	–	–	–
Cc1nc2ccc(NCCN(C)C)c3c(=O)c4cc(O)ccc4n1c23 [Example 10]	200%	250%	6.87	0.06 µg/mL	–	–	–	–
CCN(CC)CCNc1ccc2ncn3c4ccc(O)cc4c(=O)c1c23 [Example 11]	–	–	7.51	0.013 µg/mL	–	–	211%	175%
CCN(CC)CCNc1ccc2nc(C)n3c4ccc(O)cc4c(=O)c1c23 [Example 12]	280%	290%	6.60	0.11 µg/mL	–	–	–	–
CN(C)CCCNc1ccc2ncn3c4ccc(O)cc4c(=O)c1c23 [Example 13]	183%	–	7.47	0.014 µg/mL	–	–	–	–
Cc1nc2ccc(NCCCN(C)C)c3c(=O)c4cc(O)ccc4n1c23 [Example 14]	255%	–	6.64	0.1 µg/mL	–	–	–	–
CCN(CC)CCCNc1ccc2ncn3c4ccc(O)cc4c(=O)c1c23 [Example 15]	309%	230%	6.74	0.08 µg/mL	–	–	–	–
CCN(CC)CCCNc1ccc2nc(C)n3c4ccc(O)cc4c(=O)c1c23 [Example 16]	150%	155%	6.05	0.4 µg/mL	–	–	–	–
